Results published in patent US8536172B2, “Inhibitors of JNK” (Roche Palo Alto LLC, priority 2009, dated 2013).

Target: Human JNK2α2 (Homo sapiens (Human), UniProt P45984)
Experiment: JNK assay in vitro: phosphorylation of GST-ATF2 (19-96) with [γ-33P] ATP, JNK2
Type: biochemical
Conditions: 1 nM enzyme, 1 μM ATF2, 8 μM ATP (Km), 30° C. 30 min
Protocol: JNK activity was measured by phosphorylation of GST-ATF2 (19-96) with [γ-^33P] ATP. […] Human JNK2α2 assay contains 1 nM enzyme, 1 μM ATF2, 8 μM ATP with 1 uCi [γ-^33P] ATP. Human JNK1α1 assay contains 2 nM enzyme, 1 μM ATF2, 6 μM ATP with 1 μCi [γ-^33P] ATP. Human JNK3 (Upstate Biotech #14-501M) assay contains 2 nM enzyme, 1 μM ATF2, 4 μM ATP with 1 μCi [γ-^33P] ATP. The enzyme assay was carried out in the presence or absence of several compound concentrations. JNK and compound were pre-incubated for 10 min., followed by initiation of the enzymatic reaction by adding ATP and the substrate. The reaction mixture was incubated at 30° C. for 30 min. At the end of incubation, the reaction was terminated by transferring 25 μl of the reaction mixture to 150 μl of 10% glutathione Sepharose® slurry (Amersham #27-4574-01) containing 135 mM EDTA. The reaction product was captured on the affinity resin, and washed on a filtration plate (Millipore, MABVNOB50) with phosphate buffered saline for six times to remove free radionucleotide. The incorporation of ^33P into ATF2 was quantified on a microplate scintillation counter (Packard Topcount). Compound inhibition potency on JNK was measured by IC50 value generated from ten concentration inhibition curves fitted into the 3-parameter model: % inhibition=Maximum/(1+(IC50/[Inhibitor])^slope). Data were analyzed on Microsoft Excel for parameter estimation.

Human JNK2α2, sequence (P45984 whole entry): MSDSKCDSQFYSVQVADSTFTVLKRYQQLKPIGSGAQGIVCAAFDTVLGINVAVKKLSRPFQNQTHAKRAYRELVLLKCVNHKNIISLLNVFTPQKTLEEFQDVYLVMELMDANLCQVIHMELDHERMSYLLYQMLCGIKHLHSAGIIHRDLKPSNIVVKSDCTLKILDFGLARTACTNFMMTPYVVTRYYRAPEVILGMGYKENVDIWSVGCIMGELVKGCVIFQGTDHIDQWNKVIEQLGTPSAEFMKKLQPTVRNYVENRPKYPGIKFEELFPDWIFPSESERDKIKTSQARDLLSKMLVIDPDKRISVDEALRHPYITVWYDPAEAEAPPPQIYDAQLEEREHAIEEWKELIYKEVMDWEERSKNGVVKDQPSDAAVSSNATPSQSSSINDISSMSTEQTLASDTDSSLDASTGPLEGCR

CS(=O)(=O)N[C@H]1CC[C@H](Nc2nccc(-n3ccc4c(N5CCNCC5)cccc43)n2)CC1 [Compound I-1, N-{4-[4-(4-Piperazin-1-yl-indol-1-yl)-pyrimidin-2-ylamino]-cyclohexyl}-methanesulfonamide]
IC50: 1430 nM

CS(=O)(=O)N[C@H]1CC[C@H](Nc2nccc(-n3ccc4c(N5CCN(S(C)(=O)=O)CC5)cccc43)n2)CC1 [Compound I-3, N-(4-{4-[4-(4-Methanesulfonyl-piperazin-1-yl)-indol-1-yl]-pyrimidin-2-ylamino}-cyclohexyl)-methanesulfonamide]
IC50: 182 nM

CS(=O)(=O)N[C@H]1CC[C@H](Nc2nccc(-n3ccc4c(N5CCN(C(N)=O)CC5)cccc43)n2)CC1 [Compound I-7, 4-{1-[2-(4-Methanesulfonylamino-cyclohexylamino)-pyrimidin-4-yl]-1H-indol-4-yl}-piperazine-1-carboxylic acid amide]
IC50: 86.1 nM

CS(=O)(=O)N[C@H]1CC[C@H](Nc2nccc(-n3ccc4c(N5CCN(S(N)(=O)=O)CC5)cccc43)n2)CC1 [Compound I-8, 4-{1-[2-(4-Methanesulfonylamino-cyclohexylamino)-pyrimidin-4-yl]-1H-indol-4-yl}-piperazine-1-sulfonic acid amide]
IC50: 82.3 nM

N#CCC(=O)N1CCN(c2cccc3c2ccn3-c2ccnc(N[C@H]3CC[C@H](CO)CC3)n2)CC1 [Compound I-27, 3-(4-{1-[2-(4-Hydroxymethyl-cyclohexylamino)-pyrimidin-4-yl]-1H-indol-4-yl}-piperazin-1-yl)-3-oxo-propionitrile]
IC50: 12.8 nM

N#CCC(=O)N1CCN(c2cccc3c2ccn3-c2ccnc(N[C@H]3CC[C@H](CN4CC[C@H](O)C4)CC3)n2)CC1 [Compound I-28, 3-[4-(1-{2-[4-((S)-3-Hydroxy-pyrrolidin-1-ylmethyl)-cyclohexylamino]-pyrimidin-4-yl}-1H-indol-4-yl)-piperazin-1-yl]-3-oxo-propionitrile]
IC50: 55.5 nM

CC(=O)N1CCN(c2cccc3c2ccn3-c2ccnc(N[C@H]3CC[C@H](CN4CC[C@@H](O)C4)CC3)n2)CC1 [Compound I-29, 1-[4-(1-{2-[4-((R)-3-Hydroxy-pyrrolidin-1-ylmethyl)-cyclohexylamino]-pyrimidin-4-yl}-1H-indol-4-yl)-piperazin-1-yl]-ethanone]
IC50: 525 nM

CCOC1CCN(C(=O)[C@H]2CC[C@H](Nc3nccc(-n4ccc5c(N6CCC(S(C)(=O)=O)CC6)cccc54)n3)CC2)CC1 [Compound I-30, (4-Ethoxy-piperidin-1-yl)-(4-{4-[4-(4-methanesulfonyl-piperidin-1-yl)-indol-1-yl]-pyrimidin-2-ylamino}-cyclohexyl)-methanone]
IC50: 82.7 nM

N#CCC(=O)O[C@@H]1CCC[C@H](Nc2nccc(-n3ccc4c(N5CCN(C(=O)CC#N)CC5)cccc43)n2)C1 [Compound I-33, Cyano-acetic acid (1R,3S)-3-(4-{4-[4-(2-cyano-acetyl)-piperazin-1-yl]-indol-1-yl}-pyrimidin-2-ylamino)-cyclohexyl ester]
IC50: 198 nM

N#CCC(=O)N1CCN(c2cccc3c2ccn3-c2ccnc(N[C@H]3CCC[C@H](O)C3)n2)CC1 [Compound I-34, 3-(4-{1-[2-((1S,3S)-3-Hydroxy-cyclohexylamino)-pyrimidin-4-yl]-1H-indol-4-yl}-piperazin-1-yl)-3-oxo-propionitrile]
IC50: 89.2 nM

N#CCC(=O)N1CCN(c2cccc3c2ccn3-c2ccnc(N[C@H]3CCC[C@@H](O)C3)n2)CC1 [Compound I-35, 3-(4-{1-[2-((1S,3R)-3-Hydroxy-cyclohexylamino)-pyrimidin-4-yl]-1H-indol-4-yl}-piperazin-1-yl)-3-oxo-propionitrile]
IC50: 177 nM

N#CCC(=O)O[C@H]1CCC[C@H](Nc2nccc(-n3ccc4c(N5CCN(C(=O)CC#N)CC5)cccc43)n2)C1 [Compound I-36, Cyano-acetic acid (1S,3S)-3-(4-{4-[4-(2-cyano-acetyl)-piperazin-1-yl]-indol-1-yl}-pyrimidin-2-ylamino)-cyclohexyl ester]
IC50: 168 nM

N#CCC(=O)N1CCN(c2cccc3c2ccn3-c2ccnc(NC3CCCCC3)n2)CC1 [Compound I-38, 3-{4-[1-(2-Cyclohexylamino-pyrimidin-4-yl)-1H-indol-4-yl]-piperazin-1-yl}-3-oxo-propionitrile]
IC50: 42.8 nM

COCCO[C@H]1CC[C@H](Nc2nccc(-n3ccc4c(N5CCN(C(C)=O)CC5)cccc43)n2)CC1 [Compound I-39, 1-[4-(1-{2-[4-(2-Methoxy-ethoxy)-cyclohexylamino]-pyrimidin-4-yl}-1H-indol-4-yl)-piperazin-1-yl]-ethanone]
IC50: 406 nM

COCCO[C@H]1CC[C@H](Nc2nccc(-n3ccc4c(N5CCN(C(=O)CC#N)CC5)cccc43)n2)CC1 [Compound I-40, 3-[4-(1-{2-[4-(2-Methoxy-ethoxy)-cyclohexylamino]-pyrimidin-4-yl}-1H-indol-4-yl)-piperazin-1-yl]-3-oxo-propionitrile]
IC50: 35 nM

CC(=O)N1CCN(c2cccc3c2ccn3-c2ccnc(N[C@H]3CC[C@H](C(C)(C)O)CC3)n2)CC1 [Compound I-43, 1-[4-(1-{2-[4-(1-Hydroxy-1-methyl-ethyl)-cyclohexylamino]-pyrimidin-4-yl}-1H-indol-4-yl)-piperazin-1-yl]-ethanone]
IC50: 432 nM

CS(=O)(=O)N(CCO)[C@H]1CC[C@H](Nc2nccc(-n3ccc4c(N5CCN(C(=O)CC#N)CC5)cccc43)n2)CC1 [Compound I-44, N-[4-(4-{4-[4-(2-Cyano-acetyl)-piperazin-1-yl]-indol-1-yl}-pyrimidin-2-ylamino)-cyclohexyl]-N-(2-hydroxy-ethyl)-methanesulfonamide]
IC50: 19.2 nM

CC(C)(O)[C@H]1CC[C@H](Nc2nccc(-n3ccc4c(N5CCN(C(=O)CC#N)CC5)cccc43)n2)CC1 [Compound I-45, 3-[4-(1-{2-[4-(1-Hydroxy-1-methyl-ethyl)-cyclohexylamino]-pyrimidin-4-yl}-1H-indol-4-yl)-piperazin-1-yl]-3-oxo-propionitrile]
IC50: 33.4 nM

CCN1CCN(C(=O)[C@H]2CC[C@H](Nc3nccc(-n4ccc5c(N6CCC(S(C)(=O)=O)CC6)cccc54)n3)CC2)CC1 [Compound I-46, (4-Ethyl-piperazin-1-yl)-(4-{4-[4-(4-methanesulfonyl-piperidin-1-yl)-indol-1-yl]-pyrimidin-2-ylamino}-cyclohexyl)-methanone]
IC50: 36 nM

CS(=O)(=O)C1CCN(c2cccc3c2ccn3-c2ccnc(N[C@H]3CC[C@H](C(=O)N4CCN(C5CC5)CC4)CC3)n2)CC1 [Compound I-47, (4-Cyclopropyl-piperazin-1-yl)-(4-{4-[4-(4-methanesulfonyl-piperidin-1-yl)-indol-1-yl]-pyrimidin-2-ylamino}-cyclohexyl)-methanone]
IC50: 29.6 nM

CC(C)(C)N1CCN(C(=O)[C@H]2CC[C@H](Nc3nccc(-n4ccc5c(N6CCC(S(C)(=O)=O)CC6)cccc54)n3)CC2)CC1 [Compound I-48, (4-tert-Butyl-piperazin-1-yl)-(4-{4-[4-(4-methanesulfonyl-piperidin-1-yl)-indol-1-yl]-pyrimidin-2-ylamino}-cyclohexyl)-methanone]
IC50: 54.5 nM

CS(=O)(=O)C1CCN(c2cccc3c2ccn3-c2ccnc(N[C@H]3CC[C@H](C(=O)N4CCN(C5CCC5)CC4)CC3)n2)CC1 [Compound I-49, (4-Cyclobutyl-piperazin-1-yl)-(4-{4-[4-(4-methanesulfonyl-piperidin-1-yl)-indol-1-yl]-pyrimidin-2-ylamino}-cyclohexyl)-methanone]
IC50: 59.8 nM

CS(=O)(=O)C1CCN(c2cccc3c2ccn3-c2ccnc(N[C@H]3CC[C@H](C(=O)N4CCN5CCCCC5C4)CC3)n2)CC1 (stereo partly drawn) [Compound I-50, (4-{4-[4-(4-Methanesulfonyl-piperidin-1-yl)-indol-1-yl]-pyrimidin-2-ylamino}-cyclohexyl)-(octahydro-pyrido[1,2-a]pyrazin-2-yl)-methanone]
IC50: 15.6 nM

CS(=O)(=O)C1CCN(c2cccc3c2ccn3-c2ccnc(N[C@H]3CC[C@H](C(=O)N4CCN5CCCC5C4)CC3)n2)CC1 (stereo partly drawn) [Compound I-52, (Hexahydro-pyrrolo[1,2-a]pyrazin-2-yl)-(4-{4-[4-(4-methanesulfonyl-piperidin-1-yl)-indol-1-yl]-pyrimidin-2-ylamino}-cyclohexyl)-methanone]
IC50: 21.8 nM

CS(=O)(=O)C1CCN(c2cccc3c2ccn3-c2ccnc(N[C@H]3CC[C@H](C(=O)N4CCn5ccnc5C4)CC3)n2)CC1 [Compound I-54, (5,6-Dihydro-8H-imidazo[1,2-a]pyrazin-7-yl)-(4-{4-[4-(4-methanesulfonyl-piperidin-1-yl)-indol-1-yl]-pyrimidin-2-ylamino}-cyclohexyl)-methanone]
IC50: 15.2 nM

N#CCC(=O)N1CCN(c2cccc3c2ccn3-c2ccnc(N[C@H]3CC[C@@H](O)C3)n2)CC1 [Compound I-58, 3-(4-{1-[2-((1S,3R)-3-Hydroxy-cyclopentylamino)-pyrimidin-4-yl]-1H-indol-4-yl}-piperazin-1-yl)-3-oxo-propionitrile]
IC50: 806 nM

N#CCC(=O)N1CCN(c2cccc3c2ccn3-c2ccnc(N[C@@H]3CC[C@H](O)C3)n2)CC1 [Compound I-59, 3-(4-{1-[2-((1R,3S)-3-Hydroxy-cyclopentylamino)-pyrimidin-4-yl]-1H-indol-4-yl}-piperazin-1-yl)-3-oxo-propionitrile]
IC50: 570 nM
